{
  "source": "patent US20100086518A1",
  "about": "“TREATMENT OF MELANOMA” (NOVARTIS AG, priority 2007, published 2010)",
  "key": {"[1]": {"tested_on": "bFGF-driven neovascularization", "test": "In vivo FGF-mediated matrigel angiogenesis assay", "conditions": "daily for 8 days"}, "[2]": {"tested_on": "melanoma tumor cells MEXF 514/12", "test": "cells", "conditions": "Homo sapiens"}, "[3]": {"tested_on": "melanoma tumor cells MEXF 276/7", "test": "cells", "conditions": "Homo sapiens"}, "[4]": {"tested_on": "BRaf WT CHL-1 melanoma tumors"}, "[5]": {"tested_on": "melanoma tumor cells MEXF 1341/3", "test": "cells", "conditions": "Homo sapiens"}, "[6]": {"tested_on": "other kinases in the PI3K/Akt and MAPK(K) pathways", "conditions": "read-out: IC50 other kinases in the PI3K/Akt and MAPK(K) pathways; negligible activity"}, "[7]": {"tested_on": "human melanoma CHL-1 (wild type B-Raf) xenograft", "assay_type": "in vivo", "conditions": "day 25", "protocol": "Animals. […] . Mice were implanted with subcutaneous ID chips upon arrival and then underwent at least 7 days of acclimatization prior to the study start. All animal studies were conducted in a facility accredited by the Association for Assessment and Accreditation of Laboratory Animal Care International and in accordance with all guidelines of the Institutional Animal Care and Use Committee and the Guide for The Care and Use of Laboratory Animals (National Research Council).\nCell culture for in vivo efficacy studies. […] The human melanoma cell line CHL-1 was cultured for 6 passages in DMEM media with low glutamine+10% FBS at 37° C. in a humidified atmosphere with 5% CO2.\nThe day of tumor cell implantation, tumor cells were harvested and resuspended in HBSS (A375 cells) or 50% HBSS+plus 50% Matrigel (CHL-1 cells; Becton Dickenson and Company, Franklin Lakes, N.J.) at 2.5×10^7 cells/mL. Cells were inoculated subcutaneously in the right flank at 5×10^6 cells/200 uL/mouse.\n. The group sizes were 9 animals per group (A375 study) or 10 animals per group (CHL-1 study). […] . […] . […] Comparisons of the mean tumor volume in the treatment vs. the vehicle group were evaluated using a Student's two tailed t-test (Excel software)."}, "[8]": {"tested_on": "melanoma tumor cells MEXF 1765/3", "test": "cells", "conditions": "Homo sapiens"}, "[9]": {"tested_on": "melanoma tumor cells MEXF 672/3", "test": "cells", "conditions": "Homo sapiens"}, "[10]": {"tested_on": "melanoma-inhibitory activity (MIA) protein", "test": "Plasma MIA levels in the CHL-1 study", "assay_type": "in vivo, Nu/Nu mice", "conditions": "30 mg/kg and 80 mg/kg groups", "protocol": "MIA ELISA Assay: Equal numbers of human melanoma and colorectal carcinoma cells (˜250,000 cells for each cell line) were seeded onto tissue culture plates and the culture medium for each cell line was collected 48 hr later. Levels of MIA in culture media or plasma were measured by a commercial single-step ELISA kit according to the manufacturer's protocol (Roche Diagnostics Corporation, Indianapolis, Ind.). MIA concentrations in test samples were calculated using a standard curve ranging from 3-37 ng/mL. When the MIA concentration exceeded the highest standard concentration, the samples were diluted 1:5 and assayed again to have the results fall within the linear range of the standard curve. Data were evaluated using the Student t-test (two-tailed distribution, two-sample unequal variance), using P≦0.05 as the level of significance.\nIn the CHL-1 study, plasma levels of the melanoma marker melanoma-inhibitory activity (MIA) protein secreted by melanoma cells were also measured."}, "[11]": {"tested_on": "melanoma tumor cells MEXF 462/6", "test": "cells", "conditions": "Homo sapiens"}, "[12]": {"tested_on": "melanoma tumor cells MEXF 989/7", "test": "cells", "conditions": "Homo sapiens"}, "[13]": {"target": "T1, VEGFR2/Flk1 (UniProt P35968)", "T1 construct": "other: purified enzyme", "test": "VEGFR2 kinase assay (purified enzyme)", "assay_type": "biochemical", "conditions": "read-out: IC50 VEGFR flk1"}, "[14]": {"conditions": "Cmpd 1 30 mg/kg qd, carboplatin 50 mg/kg + paclitaxel 25 mg/kg 1x/wk"}},
  "note": "Like-named read-outs stand apart in the source and are kept apart here.",
  "data": [
    {"smiles": "CN1CCN(c2ccc3nc(-c4c(N)c5c(F)cccc5[nH]c4=O)[nH]c3c2)CC1", "note": "[Compound 1, 4-amino-5-fluoro-3-[6-(4-methylpiperazin-1-yl)-1H-benzimidazol-2-yl]-1H-quinolin-2-one]", "values": [
      {"measurement": "hemoglobin level in Matrigel plugs versus unsupplemented Matrigel", "setting": "[1]; all doses >10 mg/kg", "result": "less than the basal hemoglobin level"},
      {"measurement": "IC50 of inhibition of bFGF-driven neovascularization", "setting": "[1]; oral, 3-100 mg/kg, hemoglobin in Matrigel plugs", "result": 3, "unit": "mg/kg"},
      {"measurement": "IC50", "setting": "[2]; MEXF514, read-out: IC50 clonogenic, MEXF 514/12", "result": 1050, "unit": "nM"},
      {"measurement": "EC50", "setting": "[2]; MEXF514, read-out: relative EC50 soft agar clonogenic, 514/12", "result": 1050, "unit": "nM"},
      {"measurement": "IC50", "setting": "[3]; read-out: IC50 clonogenic, MEXF 276/7", "result": 1140, "unit": "nM"},
      {"measurement": "EC50", "setting": "[3]; read-out: relative EC50 soft agar clonogenic, 276/7", "result": 1140, "unit": "nM"},
      {"measurement": "Clinical Observations", "setting": "[4]; BAR = bright, alert, responsive, BWL = body weight loss", "result": "BAR"},
      {"measurement": "% Mean change in BW of initial", "setting": "[4]; [14]", "result": 4.3, "unit": "%"},
      {"measurement": "Max % TGI; day 14", "setting": "[4]; [14]", "result": 52.51, "unit": "%"},
      {"measurement": "Mean of Tv on day 14", "setting": "[4]; Cmpd 1 30 mg/kg qd, carboplatin 50 mg/kg + paclitaxel 25 mg/kg 1x/wk, tumor volume in mm^3", "result": 884},
      {"measurement": "T/C Observed (O)", "setting": "[4]; day 14", "result": 0.56},
      {"measurement": "IC50", "setting": "[5]; read-out: IC50 clonogenic, MEXF 1341/3", "result": 2240, "unit": "nM"},
      {"measurement": "EC50", "setting": "[5]; read-out: relative EC50 soft agar clonogenic, 1341/3", "result": 2240, "unit": "nM"},
      {"measurement": "IC50", "setting": "[6]", "result": "> 10000", "unit": "nM"},
      {"measurement": "tumor growth inhibition (TGI)", "setting": "[7]; 10 mpk p.o. daily", "result": 64, "unit": "%"},
      {"measurement": "tumor growth inhibition (TGI)", "setting": "[7]; 30 mpk p.o. daily", "result": 73, "unit": "%"},
      {"measurement": "tumor growth inhibition (TGI)", "setting": "[7]; 60 mpk p.o. daily", "result": 89, "unit": "%"},
      {"measurement": "tumor growth inhibition (TGI)", "setting": "[7]; 80 mpk p.o. daily", "result": 87, "unit": "%"},
      {"measurement": "IC50", "setting": "[8]; read-out: IC50 clonogenic, MEXF 1765/3", "result": 2580, "unit": "nM"},
      {"measurement": "EC50", "setting": "[8]; read-out: relative EC50 soft agar clonogenic, 1765/3", "result": 2580, "unit": "nM"},
      {"measurement": "IC50", "setting": "[9]; read-out: IC50 clonogenic, MEXF 672/3", "result": 1670, "unit": "nM"},
      {"measurement": "EC50", "setting": "[9]; read-out: relative EC50 soft agar clonogenic, 672/3", "result": 1670, "unit": "nM"},
      {"measurement": "plasma MIA levels", "setting": "[10]; day 8, vehicle […]", "result": "undetectable"},
      {"measurement": "plasma MIA levels", "setting": "[10]; day 22", "result": "undetectable"},
      {"measurement": "IC50", "setting": "[11]; read-out: IC50 clonogenic, MEXF 462/6", "result": 700, "unit": "nM"},
      {"measurement": "EC50", "setting": "[11]; read-out: relative EC50 soft agar clonogenic, 462/6", "result": 700, "unit": "nM"},
      {"measurement": "IC50", "setting": "[12]; MEXF 989, read-out: IC50 clonogenic, MEXF 989/7", "result": 2540, "unit": "nM"},
      {"measurement": "EC50", "setting": "[12]; MEXF 989, read-out: relative EC50 soft agar clonogenic, 989/7", "result": 2540, "unit": "nM"}
    ]},
    {"smiles": "Nc1c(-c2nc3ccc(N4CCNCC4)cc3[nH]2)c(=O)[nH]c2cccc(F)c12", "note": "[Compound 3, 4-Amino-5-fluoro-3-(6-piperazin-1-yl-1H-benzimidazol-2-yl)quinolin-2(1H)-one]", "values": [
      {"measurement": "IC50", "setting": "[13]", "result": "[…]"}
    ]}
  ]
}
